Experimental data published in patent US6737383B1, “Herbicidal oxadiazolidines” (priority 1999, dated 2004).

Columns and labels:
bedstraw = assay: Test B pre/postemergence bedstraw; type: in vivo, Galium aparine
In short: (§1)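 Response is a visual 0-to-10 score relative to untreated plants, where 0 means no effect and 10 means complete control, taken twelve to sixteen days after application. Treatments went onto soil at planting and onto foliage of 1- to 4-leaf plants, using a surfactant-containing non-phytotoxic solvent.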

blackgrass = assay: Test B pre/postemergence blackgrass; type: in vivo, Alopecurus myosuroides
From the text: (§2) Seeds of bedstraw (Galium aparine), blackgrass (Alopecurus myosuroides), surinam grass (Brachiaria decumbens), cocklebur (Xanthium strumarium), corn (Zea mays), crabgrass (Digitaria sanguinalis), giant foxtail (Setaria faberii), morningglory (Ipomoea hederacea), pigweed (Amaranthus retroflexus), rape (Brassica napus), soybean (Glycine max), sugar beet (Beta vulgaris), velvetleaf (Abutilon theophrasti), wheat (Triticum aestivum), wild oat (Avena fatua) and purple nutsedge (Cyperus rotundus) tubers were planted and treated preemnergence with test chemicals formulated in a non-phytotoxic solvent mixture which included a surfactant.
(§3) At the same time, these crop and weed species were also treated with postemergence applications of test chemicals formulated in the same manner. Plants ranged in height from 2 to 18 cm (1- to 4-leaf stage) for postemergence treatments. Plant species in the flood test consisted of rice (Oryza sativa), smallflower flatsedge (Cyperus difformis), duck salad (Heteranthera limosa) and bamyardgrass (Echinochloa crus-galli) grown to the 2-leaf stage for testing. Treated plants and controls were maintained in a greenhouse for twelve to sixteen days, after which all species were compared to controls and visually evaluated. Plant response ratings, summarized in Table B, are based on a scale of 0 to 10 where 0 is no effect and 10 is complete control. A dash (−) response means no test result.

surinam grass = assay: Test B pre/postemergence surinam grass; type: in vivo, Brachiaria decumbens
From the text: as §2, §3

cocklebur = assay: Test B pre/postemergence cocklebur; type: in vivo, Xanthium strumarium
In short: as §1

corn = assay: Test B pre/postemergence corn; type: in vivo, Zea mays
From the text: as §2, §3

crabgrass = assay: Test B pre/postemergence crabgrass; type: in vivo, Digitaria sanguinalis
In short: as §1

giant foxtail = assay: Test B pre/postemergence giant foxtail; type: in vivo, Setaria faberii
From the text: as §2, §3

morningglory = assay: Test B pre/postemergence morningglory; type: in vivo, Ipomoea hederacea
From the text: as §2, §3

pigweed = assay: Test B pre/postemergence pigweed; type: in vivo, Amaranthus retroflexus
In short: as §1

rape = assay: Test B pre/postemergence rape; type: in vivo, Brassica napus
In short: as §1

soybean = assay: Test B pre/postemergence soybean; type: in vivo, Glycine max
From the text: as §2, §3

sugar beet = assay: Test B pre/postemergence sugar beet; type: in vivo, Beta vulgaris
In short: as §1

velvetleaf = assay: Test B pre/postemergence velvetleaf; type: in vivo, Abutilon theophrasti
In short: as §1

wheat = assay: Test B pre/postemergence wheat; type: in vivo, Triticum aestivum
In short: as §1

wild oat = assay: Test B pre/postemergence wild oat; type: in vivo, Avena fatua
In short: as §1

purple nutsedge = assay: Test B pre/postemergence purple nutsedge; type: in vivo, Cyperus rotundus
From the text: as §2, §3

[1] = Postemergence, Rate 125 g/ha, scale of 0 to 10 where 0 is no effect and 10 is complete control
[2] = Preemergence, Rate 62 g/ha, scale of 0 to 10 where 0 is no effect and 10 is complete control
[3] = Preemergence, Rate 125 g/ha, 0 is no effect, 10 is complete control
[4] = Preemergence, Rate 250 g/ha, scale 0 to 10, 0 is no effect, 10 is complete control
[5] = Preemergence, Rate 500 g/ha, scale 0 to 10 (0 no effect, 10 complete control)
[6] = Rate 62 g/ha, Postemergence, scale of 0 to 10 where 0 is no effect and 10 is complete control
[7] = Rate 250 g/ha, Postemergence, scale 0 to 10, 0 is no effect, 10 is complete control
[8] = Rate 500 g/ha, Postemergence, scale 0 to 10

CC(C)N(C(=O)n1oc(=O)n([C@H](C)c2ccccc2)c1=O)c1ccc(Cl)cc1 [Compound 178]
Bedstraw plant response rating (bedstraw; [1]): 0
Bedstraw plant response rating (bedstraw; [2]): 0
Bedstraw plant response rating (0 to 10 scale) (bedstraw; [3]): 0
Bedstraw plant response rating (bedstraw; [4]): 0
Bedstraw plant response rating (bedstraw; [5]): 0
Bedstraw plant response rating (bedstraw; [6]): 0
Plant response rating, Bedstraw (bedstraw; [7]): 0
Bedstraw plant response rating (bedstraw; [8]): 0
Blackgrass plant response rating (blackgrass; [1]): 0
Blackgrass plant response rating (blackgrass; [2]): 0
Blackgrass plant response rating (0 to 10 scale) (blackgrass; [3]): 0
Blackgrass plant response rating (blackgrass; [4]): 0
Blackgrass plant response rating (blackgrass; [5]): 3
Blackgrass plant response rating (blackgrass; [6]): 0
Plant response rating, Blackgrass (blackgrass; [7]): 0
B. signalgrass plant response rating (surinam grass; [1]): 0
B. signalgrass plant response rating (surinam grass; [2]): 6
B. signalgrass plant response rating (0 to 10 scale) (surinam grass; [3]): 7
B. signalgrass plant response rating (surinam grass; [4]): 8
B. signalgrass plant response rating (surinam grass; [5]): 9
B. signalgrass plant response rating (surinam grass; [6]): 0
Plant response rating, B. signalgrass (surinam grass; [7]): 0
B. signalgrass plant response rating (surinam grass; Rate 500 g/ha, Postemergence, scale 0 to 10, 0 no effect, 10 complete control): 2
Cocklebur plant response rating (cocklebur; [1]): 0
Cocklebur plant response rating (cocklebur; [2]): 0
Cocklebur plant response rating (0 to 10 scale) (cocklebur; [3]): 0
Cocklebur plant response rating (cocklebur; [4]): 0
Cocklebur plant response rating (cocklebur; [5]): 0
Cocklebur plant response rating (cocklebur; [6]): 0
Plant response rating, Cocklebur (cocklebur; [7]): 0
Cocklebur plant response rating (cocklebur; [8]): 0
Corn plant response rating (corn; [1]): 0
Corn plant response rating (corn; [2]): 0
Corn plant response rating (0 to 10 scale) (corn; [3]): 0
Corn plant response rating (corn; [4]): 0
Corn plant response rating (corn; [5]): 0
Corn plant response rating (corn; [6]): 0
Plant response rating, Corn (corn; [7]): 0
Corn plant response rating (corn; [8]): 0
Crabgrass plant response rating (crabgrass; [1]): 0
Crabgrass plant response rating (crabgrass; [2]): 0
Crabgrass plant response rating (0 to 10 scale) (crabgrass; [3]): 2
Crabgrass plant response rating (crabgrass; [4]): 8
Crabgrass plant response rating (crabgrass; [5]): 9
Crabgrass plant response rating (crabgrass; [6]): 0
Plant response rating, Crabgrass (crabgrass; [7]): 0
Crabgrass plant response rating (crabgrass; [8]): 2
Giant foxtail plant response rating (giant foxtail; [1]): 0
Giant foxtail plant response rating (giant foxtail; [2]): 4
Giant foxtail plant response rating (0 to 10 scale) (giant foxtail; [3]): 4
Giant foxtail plant response rating (giant foxtail; [4]): 8
Giant foxtail plant response rating (giant foxtail; [5]): 9
Giant foxtail plant response rating (giant foxtail; [6]): 0
Plant response rating, Giant foxtail (giant foxtail; [7]): 0
Giant foxtail plant response rating (giant foxtail; [8]): 2
Morningglory plant response rating (morningglory; [1]): 2
Morningglory plant response rating (morningglory; [2]): 0
Morningglory plant response rating (0 to 10 scale) (morningglory; [3]): 0
Morningglory plant response rating (morningglory; [4]): 0
Morningglory plant response rating (morningglory; [5]): 0
Morningglory plant response rating (morningglory; [6]): 2
Plant response rating, Morningglory (morningglory; [7]): 2
Morningglory plant response rating (morningglory; [8]): 3
Redroot pigweed plant response rating (pigweed; [1]): 7
Redroot pigweed plant response rating (pigweed; [2]): 0
Redroot pigweed plant response rating (0 to 10 scale) (pigweed; [3]): 0
Redroot pigweed plant response rating (pigweed; [4]): 6
Redroot pigweed plant response rating (pigweed; [5]): 10
Redroot pigweed plant response rating (pigweed; [6]): 0
Redroot pigweed plant response rating (pigweed; [8]): 7
Rape plant response rating (rape; [1]): 0
Rape plant response rating (rape; [2]): 0
Rape plant response rating (0 to 10 scale) (rape; [3]): 0
Rape plant response rating (rape; [4]): 0
Rape plant response rating (rape; [5]): 0
Rape plant response rating (rape; [6]): 0
Plant response rating, Rape (rape; [7]): 0
Rape plant response rating (rape; [8]): 0
Soybean plant response rating (soybean; [1]): 1
Soybean plant response rating (soybean; [2]): 0
Soybean plant response rating (0 to 10 scale) (soybean; [3]): 0
Soybean plant response rating (soybean; [4]): 0
Soybean plant response rating (soybean; [5]): 0
Soybean plant response rating (soybean; [6]): 1
Plant response rating, Soybean (soybean; [7]): 2
Soybean plant response rating (soybean; [8]): 2
Sugarbeets plant response rating (sugar beet; [1]): 0
Sugarbeets plant response rating (sugar beet; [2]): 0
Sugarbeets plant response rating (0 to 10 scale) (sugar beet; [3]): 0
Sugarbeets plant response rating (sugar beet; [4]): 0
Sugarbeets plant response rating (sugar beet; [5]): 0
Sugarbeets plant response rating (sugar beet; [6]): 0
Plant response rating, Sugarbeets (sugar beet; [7]): 0
Sugarbeets plant response rating (sugar beet; [8]): 0
Velvetleaf plant response rating (velvetleaf; [2]): 0
Velvetleaf plant response rating (0 to 10 scale) (velvetleaf; [3]): 0
Velvetleaf plant response rating (velvetleaf; [4]): 0
Velvetleaf plant response rating (velvetleaf; [5]): 0
Plant response rating, Velvetleaf (velvetleaf; [7]): 0
Velvetleaf plant response rating (velvetleaf; [8]): 0
Wheat plant response rating (wheat; [2]): 0
Wheat plant response rating (0 to 10 scale) (wheat; [3]): 0
Wheat plant response rating (wheat; [4]): 0
Wheat plant response rating (wheat; [5]): 0
Plant response rating, Wheat (wheat; [7]): 0
Wheat plant response rating (wheat; [8]): 2
Wild oats plant response rating (wild oat; [2]): 0
Wild oats plant response rating (0 to 10 scale) (wild oat; [3]): 0
Wild oats plant response rating (wild oat; [4]): 0
Wild oats plant response rating (wild oat; [5]): 3
Plant response rating, Wild oats (wild oat; [7]): 0
Wild oats plant response rating (wild oat; [8]): 0
Nutsedge plant response rating (purple nutsedge; [1]): 0
Nutsedge plant response rating (purple nutsedge; [2]): 0
Nutsedge plant response rating (0 to 10 scale) (purple nutsedge; [3]): 0
Nutsedge plant response rating (purple nutsedge; [4]): 0
Nutsedge plant response rating (purple nutsedge; [5]): 0
Nutsedge plant response rating (purple nutsedge; [6]): 0
Plant response rating, Nutsedge (purple nutsedge; [7]): 0
Nutsedge plant response rating (purple nutsedge; [8]): 0
